How the values were obtained:
[1] = system: Endothelin; assay: Antagonistic activity of endothelin in a demedullated rat (inhibition of increase in arterial pressure induced by endothelin); type: in vivo, Male Sprague-Dawley rats; conditions: product 10 mg/kg injected (pudendal vein) 10 minutes before endothelin
Description: 3) Test for Antagonistic Activity of Endothelin in a Demedullated Rat
Male Sprague-Dawley rats (250 to 350 g) are anaesthetized (sodium pentobarbital 60 mg/kg injected by intraperitoneal route). The animal is placed under assisted respiration and a bilateral section of the vagus nerves is carried out. The rat is then demedullated.
The average arterial pressure is recorded with a heparin catheter (PE50) introduced into the carotid of the animal and connected via a pressure sensor and an amplifier to a recorder (Gould pressure processor). A catheter is implanted in the pudendal vein in order to allow injection of the molecules to be studied. After a stabilization period (about 15 minutes), the product or the solvent is injected 10 minutes before a range of increasing doses of endothelin which are injected every 2 minutes (0.1-0.3-1-3-10 ug/kg).
The antagonistic activity of the products is estimated by the percentage inhibition of the increase in pressure induced by endothelin at doses of 3 and 10 ug/kg.

[2] = target: T1, Endothelin B receptor (Rattus norvegicus, UniProt P21451); assay: Affinity for the Endothelin B receptor: displacement of 125I endothelin from rat cortex plus cerebellum membrane preparation; type: binding; conditions: rat rear cortex plus cerebellum membranes, 25° C. for 60 minutes, pH 7.4, read-out: Endothelin B receptor IC50 in nanomoles
T1 construct: A membrane preparation is prepared from the rear cortex plus the cerebellum of a rat; from tissue; host or cells: rat rear cortex plus cerebellum, membrane preparation
T1 sequence (P21451 27-442): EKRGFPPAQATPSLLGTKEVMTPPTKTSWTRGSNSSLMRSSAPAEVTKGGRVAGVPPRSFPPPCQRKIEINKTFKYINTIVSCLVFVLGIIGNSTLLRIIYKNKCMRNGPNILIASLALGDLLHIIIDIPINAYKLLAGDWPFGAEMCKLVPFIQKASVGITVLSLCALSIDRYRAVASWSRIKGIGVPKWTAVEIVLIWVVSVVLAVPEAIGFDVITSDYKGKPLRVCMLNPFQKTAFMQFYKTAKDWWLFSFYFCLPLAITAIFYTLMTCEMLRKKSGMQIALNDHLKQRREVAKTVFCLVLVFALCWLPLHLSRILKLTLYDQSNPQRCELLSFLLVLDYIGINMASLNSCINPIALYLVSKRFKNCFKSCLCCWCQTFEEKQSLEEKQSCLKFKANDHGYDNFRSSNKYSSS
Description: 2) Study of the Affinity for the Endothelin B Receptor
A membrane preparation is prepared from the rear cortex plus the cerebellum of a rat. The tissue is ground up in a POLYTRON in a 50 mM Tris buffer pH=7.4.
After 30 minutes at 250C (W.B.) the homogenate is centrifuged at 30,000 g for 15 minutes (2 centrifugations with intermediate take-up in the Tris buffer pH. 7.4).
The pellets are suspended in an incubation buffer (25 mM Tris, 5 microg/ml pepstatin A, 3 microg/ml aprotinin, 0.1 mM PMSF, 3mM EDTA, 1 mM EGTA pH 7.4).
(§1) 2 ml aliquoted fractions are distributed in hemolysis tubes and 125I endothelin (approximately 50,000 dpm/tube) and the product to be studied are added. (The product is first tested at 3×10^-5 M three times). When the tested product displaces more than 50% of the radioactivity specifically bound to the receptor, it is tested again according to a range of 7 concentrations in order to determine the concentration which inhibits by 50% the radioactivity specifically bound to the receptor. In this way the 50% inhibitory concentration is determined.
(§2) The non-specific bond is determined by the addition of endothelin at 10^-6 M (three times). After incubation at 25° C. for 60 minutes, replacing in a water-bath at 0° C. for 5 minutes, filtration under reduced pressure and rinsing with Tris buffer pH 7.4, the radioactivity is counted in the presence of scintillating Triton. […]

[3] = target: T2, Endothelin A receptor (Rattus norvegicus, UniProt P26684); assay: Affinity for the Endothelin A receptor: displacement of 125I endothelin from rat heart (ventricles) membrane preparation; type: binding; conditions: rat heart (ventricles) membranes, 25° C. for 60 minutes, pH 7.4, read-out: Endothelin A receptor IC50 in nanomoles
T2 construct: A membrane preparation is prepared from the heart (ventricles) of a rat; from tissue; host or cells: rat heart ventricles, membrane preparation
T2 sequence (P26684 21-426): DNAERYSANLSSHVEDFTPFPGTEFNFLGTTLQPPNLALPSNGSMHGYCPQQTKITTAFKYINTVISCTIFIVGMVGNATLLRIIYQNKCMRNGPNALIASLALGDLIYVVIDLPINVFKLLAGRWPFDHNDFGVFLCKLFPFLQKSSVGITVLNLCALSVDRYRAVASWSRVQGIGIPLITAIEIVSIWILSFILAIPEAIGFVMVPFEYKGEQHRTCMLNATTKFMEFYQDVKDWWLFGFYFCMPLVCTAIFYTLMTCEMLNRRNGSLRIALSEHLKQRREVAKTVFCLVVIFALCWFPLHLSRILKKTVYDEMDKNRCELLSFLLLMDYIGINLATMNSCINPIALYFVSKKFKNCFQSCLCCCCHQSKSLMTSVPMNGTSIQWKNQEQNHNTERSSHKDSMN
Description: 1) Study of the Affinity for the Endothelin A Receptor
A membrane preparation is prepared from the heart (ventricles) of a rat. The tissue is ground up in a POLYTRON in a 50 mM Tris buffer pH=7.4.
After 30 minutes at 25° C. (W.B.) the homogenate is centrifuged at 30,000 g for 15 minutes (2 centrifugations with intermediate take-up in the Tris buffer pH. 7.4).
The pellets are suspended in an incubation buffer (25 mM Tris, 5 microg/ml pepstatin A, 3 microg/ml aprotinin, 0.1 mM PMSF, 3 mM EDTA, 1 mM EGTA pH 7.4).
as §1, with “^125 I” for “125I”, “of” for “of the”
as §2

| SMILES | % inhibition of vasoconstriction Et1 3 μg/kg [1] | % inhibition of vasoconstriction Et1 10 μg/kg [1] [%] | IC50 [2] [nM] | IC50 [3] [nM] |
| --- | --- | --- | --- | --- |
| CCCc1nc(Sc2ccc(OCC(=O)O)cc2)c(C(=O)O)n1Cc1cc2c(cc1Cl)OCO2 [Example 1, 4-((4-(carboxymethoxy)phenyl)thio)-1-((6-chloro-1,3-benzodioxol5-yl)methyl)2-propyl1H-imidazole5-carboxylic acid] | -52% | -50 | 88.5 | 2.5 |
| CC(C)c1nc(Sc2ccc(CCC(=O)O)cc2)c(C(=O)O)n1Cc1cc2c(cc1Cl)OCO2 [Example 3, 4-((4-(2-carboxyethyl)phenyl)thio)-1-((6-chloro-1,3-benzodioxol-5-yl)methyl)-2-(1-methylethyl)-1H-imidazole-5-carboxylic acid] | +7% | -31 | 78.4 | 2.5 |

From patent US5986103A, “2-alkyl-1H-imidazole-5-carboxylic acids” (Hoechst Marion Roussel, priority 1995, dated 1999)
